Assays:
host cells [1] = conditions: cited from earlier work; for side effects (e.g., cytotoxicity): compared to perbutanoylated, 3,4,6-tributanoylated or peracetylated counterparts; for cytotoxicity over prolonged exposure: beyond 2 to 3 days, up to and within two weeks
GalNAc salvage pathway = conditions: cited from earlier work
[2] = test system: hexosamine biosynthetic pathway; conditions: cited from earlier work
cell surface sialylation = assay: Overall sialylation of cell surface glycoconjugates after analog supplementation; format: cell-based
sialic acid pathway = conditions: cited from earlier work; for efficiency relative to the unmodified sugar: sialic acid production as endpoint
[3] = test system: individual sites of N-glycosylation; conditions: cited from earlier work
[4] = test system: human protein integrin α4 stably expressed in a CHO line; assay: Azido-sugar labeling of integrin α4 in CHO cells (click biotinylation, streptavidin blot); format: cell-based; conditions: 100 μM, 24 hours
Description: Whole cell lysate from cells treated with 100 μM 1,3,4-O-Bu3ManNAz for 24 hours and “click” chemistry biotinylated were probed with streptavidin (lane 1), and from the same whole cell lysate, integrin α4β1 was immunopurified using human […] antibody and probed with streptavidin (lane 2). Immunopurified integrin α4β1 was again incubated with the human anti-MUC1 antibody and re-purified (lane 3). The band in lane 4 was the same sample as lane 3 but probed with anti-human integrin α4.
FIG. 2 depicts the result of treating the sample of FIG. 1, lane 3, with PNGAse F and sialidase, with samples then visualized using streptavidin HRP.
The use of tri-butanoylated monosaccharides was examined, initially using 1,3,4-O-Bu3ManNAz to label integrin α4 in CHO cells.

host cells [5] = conditions: cited from earlier work

In the case of `CCCC(=O)OC1OC(CO)[C@H](OC(=O)CCC)[C@H](OC(=O)CCC)C1NC(C)=O` (stereo partly shown) [1,3,4-O-Bu3GalNAc], the “side effects (e.g., cytotoxicity)” value (host cells [1]) is given as “minimal side effects” and the “flux into the GalNAc salvage pathway” value (GalNAc salvage pathway) is given as “high levels of flux”.

For `CCCC(=O)OC1OC(CO)[C@@H](OC(=O)CCC)[C@H](OC(=O)CCC)C1NC(C)=O` (stereo partly shown) [1,3,4-O-Bu3GlcNAc], the “side effects (e.g., cytotoxicity)” value (host cells [1]) is given as “minimal side effects” and the “flux into the hexosamine biosynthetic pathway” value [2] is given as “high levels of flux”.

For `CCCC(=O)OC1OC(CO)[C@@H](OC(=O)CCC)[C@H](OC(=O)CCC)C1NC(C)=O` (stereo partly shown) [1,3,4-O-Bu3ManNAc, tri-butanoylated ManNAc], the “increase in overall sialylation (cell surface / glycoconjugates)” value (“increase … (cell surface / glycoconjugates)” for short) (cell surface sialylation) is given as 50 to 75%, the “flux into the sialic acid pathway” value (sialic acid pathway) is given as “high levels of flux” and the whole molecule toxicity (host cells [1]) is given as “lack “whole molecule” toxicity”. For the same compound, the growth inhibition (host cells [1]; in most cell lines) was “mild growth inhibition”, the “increase in sialylation, about ⅓ of glycosylation sites with dramatic increases” value ([3]; about ⅓ of sites) was at least 8 fold and the “increase in sialylation, about ⅓ of glycosylation sites with modest increase” value ([3]; about ⅓ of sites) was at most 2 fold. For the same compound, the “level of sialylation, about ⅓ of glycosylation sites that did not respond” value ([3]; about ⅓ of sites) was “remained unchanged” and the “increase in degree of sialylation of specific N-glycans” value [3] was at least 8 fold.

With `CCCC(=O)OC1OC(CO)[C@@H](OC(=O)CCC)[C@H](OC(=O)CCC)C1NC(=O)CN=[N+]=[N-]` (stereo partly shown) [1,3,4-O-Bu3ManNAz] the “labeling of integrin α4” value [4] was “definitive labeling”.

For `CC(=O)NC1C(OC(C)=O)OC(COC(C)=O)[C@@H](OC(C)=O)[C@@H]1OC(C)=O` (stereo partly shown) [Ac4ManNAc, peracetylated ManNAc], the “increase … (cell surface / glycoconjugates)” value (cell surface sialylation) is listed as 10 to 25%, the “efficiency relative to the unmodified sugar” value (sialic acid pathway) is listed as “several hundred fold more efficient” and the “cytotoxicity over prolonged exposure” value (host cells [1]) is listed as “cytotoxicity over prolonged exposure to cells”.

For `CCCC(=O)OCC1OC(OC(=O)CCC)C(NC(C)=O)[C@@H](OC(=O)CCC)[C@@H]1OC(=O)CCC` (stereo partly shown) [Bu4ManNAc, perbutanoylated ManNAc, reference compound], the “efficiency relative to the unmodified sugar” value (sialic acid pathway) is listed as ~2,100 fold, the “cytotoxicity over prolonged exposure” value (host cells [1]) is listed as “host cells died” and the “effect on cell growth” value (host cells [1]; within 2 or 3 days of treatment) is listed as “slowed cell growth”.

In the case of `CC(=O)NC1C(O)OC(CO)[C@@H](O)[C@@H]1O` (stereo partly shown) [ManNAc], the “increase … (cell surface / glycoconjugates)” value (cell surface sialylation) is listed as 5 to 10% and the “concentration supplemented to the cell culture media for a robust increase in sialic acid production” value (sialic acid pathway) is listed as “up to 50 mM”.

For `CCCC(=O)O.COc1cccc(C#CCON=C2CN3CCC2C3)c1` (stereo not shown) [n-butyrate], the “concentration required to elicit desired cell responses” value (host cells [5]) is given as at least 10 mM.

From patent US11015215B2, “Use of high flux SCFA-derivatized monosaccharides in recombinant glycoprotein production” (The Johns Hopkins University, priority 2014, dated 2021)
